From patent EP4603105A1, “PHARMACEUTICAL COMPOSITION CONTAINING CYCLIC COMPOUND HAVING SELECTIVE KRAS INHIBITORY EFFECT AGAINST HRAS AND NRAS” (CHUGAI SEIYAKU KABUSHIKI KAISHA, priority 2022, dated 2024)
pIC50, pKd: −log10 of the molar value.

Columns and labels:
[1] = tested on: human lung cancer strain NCI-H441; assay type: cell-based
Outline: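 Signal came from […] measured per well once the reagent was added. Beforehand, cells were cultured at 37°C and 5% carbon dioxide on a compound series serially diluted in dimethyl sulfoxide.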

[2] = target: GDP-bound KRAS wild-type protein (Homo sapiens, UniProt P01116); experiment: Binding to KRAS by surface plasmon resonance (SPR), dissociation constant KD
Chain of GDP-bound KRAS wild-type protein (P01116 1-188 isoform P01116-2): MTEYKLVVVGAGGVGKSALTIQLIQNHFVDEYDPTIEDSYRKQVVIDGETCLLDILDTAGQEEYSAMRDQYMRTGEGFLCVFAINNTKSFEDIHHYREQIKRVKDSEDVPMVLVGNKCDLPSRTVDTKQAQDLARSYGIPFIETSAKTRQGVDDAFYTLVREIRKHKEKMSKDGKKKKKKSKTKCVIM
Description: Surface plasmon resonance was used to analyze the binding affinity of compounds for KRAS, NRAS, and HRAS. The apparatus used was Biacore 8K, 8K+, or T200 (GE Healthcare), and the running buffer used was HBS (10 mM HEPES-NaOH, 150 mM NaCl, pH 7.4) containing 1 mM DTT, 10 mM MgCl2, 0.01% Tween 20, 10 µM GDP, and 4% DMSO.
Biotinylated Avi-tag fusion KRAS, NRAS, and HRAS proteins were expressed in E. coli BL21 (DE3) strains, and after cells were homogenized, they were purified using Streptavidin Mutein Matrix and Superdex 75. After purification, GDP-loaded KRAS, NRAS, and HRAS proteins were immobilized on the surface of Sensor Chip CAP (Cytiva) coated with Biotin CAPture Reagent in an immobilization amount of about 100 to 300 RU. Binding of each compound was evaluated by the Single Cycle Kinetics method, and a running buffer or a compound solution was added to the RAS protein non-immobilized surface and the immobilized surface to obtain a binding response. The flow rate was set to 100 µL/min, and in the compound-adding cycle, compound solutions having different concentrations were intermittently added for 75 seconds each, starting from a low concentration. […] In the blank cycle, a running buffer was intermittently added and not the compound solution. The Biotin CAPture Reagent and RAS proteins were immobilized for each cycle, and at the end of each cycle, the sensor chip was regenerated by the regeneration solution appended to the Biotin CAPture Kit (Cytiva). Measurement was carried out at 30°C.
The resulting sensorgram was subjected to curve fitting based on a 1:1 binding model on Biacore Insight Evaluation Software or T200 Evaluation Software, and thereby the dissociation constant KD of each compound with respect to KRAS, NRAS, and HRAS was determined. […] Blank indicates a compound from which the KD value with respect to NRAS or HRAS was not obtained.

[3] = target: GDP-bound NRAS wild-type protein (Homo sapiens, UniProt P01111); experiment: Binding to NRAS by surface plasmon resonance (SPR), KD and KD ratio to KRAS
Chain of GDP-bound NRAS wild-type protein (P01111 whole entry): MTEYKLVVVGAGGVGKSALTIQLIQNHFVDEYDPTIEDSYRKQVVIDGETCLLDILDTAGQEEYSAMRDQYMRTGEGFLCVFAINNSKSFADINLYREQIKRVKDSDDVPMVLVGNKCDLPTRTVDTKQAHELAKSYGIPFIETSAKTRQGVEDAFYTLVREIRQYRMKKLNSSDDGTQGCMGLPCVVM
Outline: (§1)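 Recombinant RAS proteins bearing a biotinylated Avi tag and loaded with GDP served as the captured ligand, recaptured fresh every cycle. Binding responses were referenced to an uncoated surface and a buffer-only blank cycle. Dissociation constants were obtained by 1:1 model fitting at 30°C.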

HRAS wild-type protein = HRAS wild-type protein (Homo sapiens, UniProt P01112); experiment: Binding to HRAS by surface plasmon resonance (SPR), KD and KD ratio to KRAS
Chain of HRAS wild-type protein (P01112 whole entry): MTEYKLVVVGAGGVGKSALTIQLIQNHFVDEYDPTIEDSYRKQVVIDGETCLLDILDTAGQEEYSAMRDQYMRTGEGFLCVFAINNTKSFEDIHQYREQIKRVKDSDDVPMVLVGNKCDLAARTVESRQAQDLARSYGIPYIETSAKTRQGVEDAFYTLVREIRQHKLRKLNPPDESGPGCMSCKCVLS
Outline: as §1

| Compound | pIC50 [1] | pKd ([2]; Single Cycle Kinetics) | further results |
| --- | --- | --- | --- |
| CCO[C@@H]1C[C@H]2C(=O)NC3(CCC3)C(=O)N(C)[C@@H](C(CC)CC)C(=O)N(C)[C@H](C(=O)N(C)C)CC(=O)N(C)[C@@H](C)C(=O)N[C@@H]([C@@H](C)CC)C(=O)N(C)CC(=O)N(C)[C@H]3C/C=C\CCN(C3=O)[C@@H](Cc3ccc(C(F)(F)F)cc3)C(=O)N(C)CC(=O)N[C@@H](CCc3ccc(C(F)(F)F)c(OC)c3)C(=O)N2C1 [PP1206] |  |  | pKd ([2]; Single Cycle Kinetics, 1:1 binding model): 9.77; NRAS /KRAS ([3]; ratio of KD with respect to GDP-bound NRAS wild-type protein to KD with respect to KRAS): AA (a compound having 20 or more is denoted as AA); HRAS /KRAS (HRAS wild-type protein; ratio of KD with respect to HRAS wild-type protein to KD with respect to KRAS): A (a compound having 10 or more and less than 20 is denoted as A) |
| CC[C@H](C)[C@@H]1NC(=O)[C@H](CC(C)C)N(C)C(=O)C[C@@H](C(=O)N(C)C)N(CCC2CCCC2)C(=O)[C@H](C2CCCC2)N(C)C(=O)C2(CCCC2)NC(=O)[C@@H]2CCCN2C(=O)[C@H](CCc2ccc(C(F)(F)F)c(Cl)c2)NC(=O)CN(C)C(=O)[C@H](Cc2ccc(F)cc2)N2CCCCC[C@@H](C2=O)N(C)C(=O)CN(C)C1=O [PP0975] | 5.80 | 8.05 |  |
| CC[C@H](C)[C@@H]1NC(=O)[C@H](CC(C)C)N(C)C(=O)C[C@@H](C(=O)N2CCOCC2)N(C)C(=O)[C@H](C2CCCC2)N(C)C(=O)C2(CCC2)NC(=O)[C@@H]2[C@@H](O)CCN2C(=O)[C@H](CCc2cc(F)c(C(F)(F)F)c(F)c2)NC(=O)CN(C)C(=O)[C@H](Cc2ccc(C(F)(F)F)cc2)N2CCCCC[C@@H](C2=O)N(C)C(=O)CN(C)C1=O [PP0872] | 5.59 | 8.77 |  |

Continued by rising pIC50 [1], values first:

| pIC50 [1] | pKd ([2]; Single Cycle Kinetics) | Compound | further results |
| --- | --- | --- | --- |
| 6.36 | 9.40 | CC[C@H](C)[C@@H]1NC(=O)[C@H](CC(C)C)N(C)C(=O)C[C@@H](C(=O)N2CCOCC2)N(C)C(=O)[C@H](C2CCCC2)N(C)C(=O)C2(CCC2)NC(=O)[C@@H]2C[C@@H](O)CN2C(=O)[C@H](CCc2cc(F)c(C(F)(F)F)c(F)c2)NC(=O)CN(C)C(=O)[C@H](Cc2ccc(C(F)(F)F)cc2)N2CCCCC[C@@H](C2=O)N(C)C(=O)CN(C)C1=O [PP0871] |  |
| 6.43 | 8.26 | C=CCCCC[C@H]1C(=O)N[C@@H]([C@@H](C)CC)C(=O)N(C)CC(=O)N(C)[C@H]2CCCCCN(C2=O)[C@@H](Cc2ccc(C(F)(F)F)cc2)C(=O)N(C)CC(=O)N[C@@H](CCc2cc(F)c(C(F)(F)F)c(F)c2)C(=O)N2C[C@H](OCC)C[C@H]2C(=O)N[C@](C)(CC=C)C(=O)N(C)[C@@H](C2CCCC2)C(=O)N(C)[C@H](C(=O)N2CCOCC2)CC(=O)N1C [PP0881] |  |
| 6.99 | 8.96 | CC[C@H](C)[C@@H]1NC(=O)[C@H](CC(C)C)N(C)C(=O)C[C@@H](C(=O)N2CCOCC2)N(C)C(=O)[C@H](C2CCCC2)N(C)C(=O)C2(CCC2)NC(=O)[C@@H]2[C@@H](OCCC(F)(F)F)CCN2C(=O)[C@H](CCc2cc(F)c(C(F)(F)F)c(F)c2)NC(=O)CN(C)C(=O)[C@H](Cc2ccc(C(F)(F)F)cc2)N2CCCCC[C@@H](C2=O)N(C)C(=O)CN(C)C1=O [PP1008] |  |
| 7.28 |  | CCC[C@H]1C(=O)N[C@@H]([C@@H](C)CC)C(=O)N(C)CC(=O)N(C)[C@H]2C/C=C\CCN(C2=O)[C@@H](Cc2ccc(C)cc2)C(=O)N(C)CC(=O)N[C@@H](CCc2cc(F)c(C(F)(F)F)c(F)c2)C(=O)N2C[C@H](OCC)C[C@H]2C(=O)NC2(CC(C)(C)C2)C(=O)N(C)[C@@H](CC2CC2)C(=O)N(C)[C@H](C(=O)N(C)C)CC(=O)N1C [PP2797] | pKd ([2]; 1:1 binding model): 9.22; NRAS /KRAS ([3]; ratio of KD for GDP-bound NRAS wild-type protein to KD for KRAS): A (a compound having 10 or more and less than 20 is denoted as A); HRAS /KRAS (HRAS wild-type protein; ratio of KD for HRAS wild-type protein to KD for KRAS): A (a compound having 10 or more and less than 20 is denoted as A) |
